The values below come from patent US10890586B2, “Methods and kits for assaying endoglycosidase activity” (Bio-Techne Corporation, priority 2016, dated 2021).

One test has as its target T1, HPSE (Homo sapiens, UniProt Q9Y251).
T1 construct: purchased Bio-Techne
T1 sequence (Q9Y251 158-543 limits assumed): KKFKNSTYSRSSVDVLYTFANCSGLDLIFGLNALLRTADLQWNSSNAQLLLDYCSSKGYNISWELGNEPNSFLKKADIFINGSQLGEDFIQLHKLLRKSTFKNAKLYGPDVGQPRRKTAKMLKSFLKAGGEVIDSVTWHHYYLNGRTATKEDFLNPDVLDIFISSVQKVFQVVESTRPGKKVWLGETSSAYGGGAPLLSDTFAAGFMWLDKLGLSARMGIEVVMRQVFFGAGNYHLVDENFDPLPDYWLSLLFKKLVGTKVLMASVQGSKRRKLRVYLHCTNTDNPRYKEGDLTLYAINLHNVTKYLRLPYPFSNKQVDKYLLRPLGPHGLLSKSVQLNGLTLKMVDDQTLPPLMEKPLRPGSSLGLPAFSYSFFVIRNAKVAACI
T1 sequence (Q9Y251 36-109 limits assumed): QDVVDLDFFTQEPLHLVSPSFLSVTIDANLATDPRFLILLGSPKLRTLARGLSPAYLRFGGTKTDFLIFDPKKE
The test can be described thus: HPSE inhibitor study (ELISA-based HPSE activity assay with labeled rhSynd4). Format: biochemical. Conditions: 10 ng HPSE, 50 mM NaAc pH 4.0, 37° C. for two hours, OD 450. On the technique in general: ELISA stands for enzyme-linked immunosorbent assay.

Test [1] deals with goat anti-human lumican capture antibody. Description: ELISA detection of KS non-reducing end labeled recombinant lumican. Conditions: 0-100 ng labeled lumican, 80 ng/well capture antibody, OD 450. Format: binding. On the procedure: This study confirmed that the endoglycosidase activity assay of this disclosure is applicable to other endoglycosidases in addition to HPSE. An ELISA assay was first used to detect labeled recombinant lumican. The non-reducing ends of KS chains on recombinant human lumican were labeled through in vitro incorporation of GlcNAz by B3GNT2 (a KS specific GlcNAc transferase) according to the procedure described in Example 2 above. Increasing amounts of the labeled lumican (0-100 ng) were subsequently immobilized on a 96-well plate coated with 80 ng/well of goat anti-human lumican capture antibody. A DuoSet ELISA kit of Human Lumican was used to perform an ELISA assay similarly to the procedure described in Example 4 above. The absorbance (OD 450) of each well was determined using a microplate reader set to 450 nm. FIG. 8 is a graph of the OD 450 of increasing amounts of labeled lumican. The data was fit to the equation y=Cx/(Kd+x) to obtain curve 802, where Kd is the ligand-receptor binding affinity (dissociation constant for lumican bound to the capture antibody).

In test [2] the target is goat anti-human Syndecan-4 capture antibody. Description: ELISA detection of HS non-reducing end labeled rhSynd4. Format: binding. The note with it: 0-50 ng labeled rhSynd4, 80 ng/well capture antibody, OD 450, fit y=Cx/(Kd+x). On the procedure: In order to establish a high throughput compatible method for HS detection, an ELISA assay was used to attempt to detect labeled rhSynd4. The non-reducing ends of HS chains on rhSynd4 were labeled according to Example 2 above. Increasing amounts of the labeled rhSynd4 (0-50 ng) were subsequently immobilized on a 96-well plate coated with 80 ng/well of goat anti-human Syndecan-4 capture antibody. The Syndecan-4 DuoSet kit was used to perform an ELISA assay (described in detail in Example 4 below). The absorbance (OD 450) of each well was determined using a microplate reader set to 450 nanometers (nm).
FIG. 4 is a graph of the OD 450 of increasing amounts of labeled rhSynd4. The data was fit to the equation y=Cx/(Kd+x) to obtain curve 402, where Kd is the ligand-receptor binding affinity (dissociation constant for rhSynd4 bound to the capture antibody).

By EC50 is commonly meant the concentration at which the effect is half-maximal. Higher therefore signals lower potency in that assay.

Method for HPSE: In order to prepare the sample for the assay, the goat anti-human Syndecan-4 capture antibody was diluted to a working concentration in PBS without carrier protein. A 96-well microplate was immediately coated with 100 μL per well of the diluted capture antibody. The plate was sealed and incubated overnight at room temperature. Each well was subsequently aspirated and washed with wash buffer, repeating the process two times for a total of three washes. The wash buffer is 25 mM Tris (pH 7.6), 137 mM NaCl, and 0.01% Tween (TBST). Each well was washed by filling each well with 400 μL of wash buffer using a squirt bottle, manifold dispenser, or autowasher. After the last wash, any remaining wash buffer was removed by aspirating or by inverting the plate and blotting it against clean paper towels. The microplate was then blocked by adding 300 μL of reagent diluent to each well and incubating the microplate for a minimum of 1 hour. The microplate was then aspirated/washed as described above for a total of three washes, and the microplate was thus ready for sample addition.
To perform the ELISA assay, 100 μL of the HPSE treated mixture diluted with 1% BSA in PBS buffer were added per well. The HPSE treated mixture was diluted such that the concentration of rhSynd4 was 25 ng/ml. […]
The absorbance (OD 450) for each of the three compounds was determined using a microplate reader set to 450 nm. […]

On HPSE, chondroitin sulfate had an EC50 of 0.39 µg/mL.

As to heparin, the EC50 at HPSE is 0.12 µg/mL.

Regarding “labeled lumican: recombinant human lumican with KS non-reducing ends labeled with GlcNAz by B3GNT2”, the “Kd (dissociation constant for lumican bound to the capture antibody)” value in test [1] worked out at 7.58 ng.

B1: labeled rhSynd4: recombinant human Syndecan-4 with HS non-reducing ends labeled with GlcNAz and biotin by click chemistry (protein, UniProt P31431 19-198, looked up)
Syndecan-4: ESIRETEVIDPQDLLEGRYFSGALPDDEDVVGPGQESDDFELSGSGDLDDLEDSMIGPEVVHPLVPLDNHIPERAGSGSQVPTEPKKLEENEVIPKRISPVEESEDVSNKVSMSSTVQGSNIFERTEVLAALIVGGIVGILFAVFLILLLMYRMKKKDEGSYDLGKKPIYKKAPTNEFYA
modifications: HS ends labeled GlcNAz and biotin
notes: recombinant human Syndecan-4 with HS non-reducing ends labeled with GlcNAz and biotin by click chemistry
Take B1: the “Kd (dissociation constant for rhSynd4 bound to the capture antibody)” value in test [2] was determined as 3.4 ng.
